Data on ten molecules can be found in patent US10716797B2, “Steroid alkaloids and compositions and kits thereof” (priority 2013, dated 2020).

Where two headings read alike, the source gives them in different places.

For one test, the system named is MRSA USA100. The test can be described thus: MIC by microdilution, alone or in combination, MRSA USA100. It counts as cell-based, Staphylococcus aureus. The following applies: agent used alone. The procedure:
(§1) Method. The minimal inhibitory concentrations (MICs), (i.e. lowest concentration of an antimicrobial that will inhibit the visible growth of a microorganism after incubation), of test compounds were determined against the normal or SCV strains of bacterial species from the Firmicutes phylum. Briefly, MICs were determined using the microdilution method in 96-well plates (Clinical and Laboratory Standards Institute (CLSI), 2011). Bacteria were inoculated at ˜10^5-10^6 CFU/mL and incubated at 35° C. for 20 h (normal strains) or 48 h (SCVs) in brain heart infusion (BHI) broth in order to allow SCVs to reach maximal growth as previously described (Mitchell et al., 2012). Then OD595 nm was read on a microplate reader. […] In this example the range of compound concentrations tested was 0.03 to 64 μg/ml using doubling increments. Strain Staphylococcus aureus NewbouldΔhemB (hemB) was also used in the experiments and is a laboratory-derived stable SCV created by the insertion of the macrolide resistance gene ermA in the hemB gene of this strain to create the SCV phenotype (defective electron transport chain and respiratory deficiency) through inactivation of hemin biosynthesis (Brouillette et al., 2004).
(§2) In the present Example the range of compound concentrations tested, using doubling increments, was 0.03 to 64 μg/ml for Compound 14 and up to 1024 μg/ml for gentamicin (GEN), kanamycin (KAN) and cefalexin (CEF) when these compounds were used alone. Compound 14 (Cpd 14) was used at a fixed concentration of 4 μg/ml when added to other antibiotics. The combination of CEF and KAN was used in a 3:2 ratio and doubling increments were used to test the antibacterial activity against MRSA in the absence or presence of Compound 14.

For another test, the system named is MRSA USA300. Nature of the test: MIC by microdilution, alone or in combination, MRSA USA300. It counts as cell-based, Staphylococcus aureus. As to conditions: agent used alone. As for the experimental part:
as §1, §2
For orientation: In broth dilution the organism is exposed to a series of concentrations in liquid medium.

The subject of test [1] is Staphylococcus aureus ATCC 29213. The test can be described thus: MIC by microdilution, compound alone or in combination with an aminoglycoside. The following applies: for MIC of aminoglycoside against S. aureus ATCC 29213 in combination with Compound 14: Compound 14 used at 4 μg/mL; for Potentiation fold with Compound 14: MIC aminoglycoside alone / MIC with Compound 14 at 4 μg/mL; for MIC: Staphylococcus aureus, ATCC29213, 20 h; for Combination MIC vs ATCC29213 (MIC of gentamicin in combination with the compound): MIC of gentamicin alone 0.5 μg/mL; for potentiation / synergy with aminoglycoside (gentamicin) in words: S. aureus ATCC 29213; for MIC vs ATCC29213: hydrochloride. It counts as cell-based. As for the experimental part:
as §1
The various antibacterial activities of the test compounds against Staphylococcus aureus ATCC 29213, alone or in combination with gentamicin, and alone against the SCV strain hemB are reported in Table 1.

Another test has as its system MRSA COL. The test can be described thus: MIC by microdilution, alone or in combination, MRSA COL. It counts as cell-based, Staphylococcus aureus. As to conditions: agent used alone. The procedure:
as §1, §2

Test [2] deals with S. aureus SCV strain NewbouldΔhemB. Nature of the test: MIC by microdilution against SCV strain. It counts as cell-based, Staphylococcus aureus. As to conditions: for Activity of the compounds against the SCV strain (class) / MIC vs SCV: compound tested alone, strain NewbouldΔhemB. As for the experimental part:
as §1, with “2004). […]” for “2004).”

The next test deals with S. aureus hemB (SaR1). Nature of the test: MIC against tomatidine-resistant SCV mutant SaR1. It counts as cell-based, Staphylococcus aureus. As to conditions: tomatidine-resistant mutant SaR1. The procedure: (§3) At each passage, using a microdilution method in 96-well microplates, S. aureus hemB was inoculated at ˜10^5-10^6 CFU/ml and incubated at 35° C. for 48 h. The range of tomatidine concentrations tested was 0.03 to 64 μg/ml using doubling increments. The concentration of gentamicin was fixed at 4 μg/mL when it was used in combination with tomatidine. At each passage, the minimal inhibitory concentrations (MICs) (i.e. lowest concentration of an antimicrobial that inhibits the visible growth of bacteria), of tomatidine was determined. The bacteria used as inoculum for the next passage were from the well preceeding the well showing the MIC (i.e. the well containing half the MIC). At each passage, the population of bacteria serving as the inoculum for the next passage was spread on BHI agar plates and three isolated colonies were collected and frozen until used for whole-genome sequencing.

The subject of a further test is S. aureus hemB (SaR2). Nature of the test: MIC against tomatidine-resistant SCV mutant SaR2. The following applies: tomatidine-resistant mutant SaR2. It counts as cell-based, Staphylococcus aureus. The procedure:
as §3

Test [3] deals with Listeria monocytogenes (strain ATCC 13932). Nature of the test: Time-kill experiments, Listeria monocytogenes. It counts as cell-based. The procedure:
Time-kill experiments were performed in order to determine whether the effect of test compounds or the combination with an aminoglycoside on Listeria monocytogenes (strain ATCC 13932) is bacteriostatic (prevents growth) or bactericidal (kills cells).
At several time points during growth at 35° C. (225 RPM), bacteria were sampled, serially diluted and plated on Brain Hearth Infusion agar (BHIA) for colony-forming unit (CFU) determinations (i.e., viable bacterial counts). Plates were incubated for 24 h at 35° C. It represents the results of three independent experiments.

[4] abbreviates: Staphylococcus aureus, read-out: MIC.
Where [5] appears, read: read-out: MIC of aminoglycoside against S. aureus ATCC 29213, aminoglycoside alone.
[6] abbreviates: MIC gentamicin alone / MIC gentamicin with compound at 8 μg/mL.
Where [7] appears, read: Staphylococcus aureus, read-out: MIC vs SCV.
Setting [8] is: compound tested alone, read-out: MIC vs ATCC29213.
Setting [9] is: S. aureus hemB (SCV strain NewbouldΔhemB).

One may read the MIC as the lowest concentration that inhibits growth of the organism. Take `NC[C@H]1O[C@H](O[C@H]2[C@H](O)[C@@H](O[C@H]3O[C@H](CO)[C@@H](O)[C@H](N)[C@H]3O)[C@H](N)C[C@@H]2N)[C@H](O)[C@@H](O)[C@@H]1O` [Kanamycin, kanamycin, reference compound]: the MIC with MRSA USA100 (setting [4]) is 256 mg/L; in the test with MRSA USA300 (setting [4]), more than 1020 mg/L; in test [1] (setting [5]), 4 mg/L; in the test with MRSA COL (setting [4]) it was 4 mg/L. In addition, the “MIC of aminoglycoside against S. aureus ATCC 29213 in combination with Compound 14” value (from here on “MIC of aminoglycoside … with Compound 14”) in test [1] was 0.25 mg/L. The “Potentiation fold with Compound 14” value in test [1] amounted to 16 fold.
On to `NC[C@H]1O[C@H](O[C@H]2[C@H](O)[C@@H](O[C@H]3O[C@H](CO)[C@@H](O)[C@H](N)[C@H]3O)[C@H](N)C[C@@H]2N)[C@H](N)C[C@@H]1O` [Tobramycin, reference compound], for which, in test [1], the “MIC of aminoglycoside … with Compound 14” value was 0.125 mg/L and the “Potentiation fold with Compound 14” value is 8 fold. For the same molecule, the minimum inhibitory concentration (MIC) in test [1] (setting [5]) came out at 1 mg/L.
For the molecule `[H]/N=C(/N)N[C@H]1[C@H](O)[C@@H](O)[C@H](O[C@@H]2O[C@@H](C)[C@](O)(C=O)[C@H]2O[C@@H]2O[C@@H](CO)[C@H](O)[C@@H](O)[C@@H]2NC)[C@@H](N/C(N)=N\[H])[C@@H]1O` [Streptomycin, reference compound], in test [1], the “MIC of aminoglycoside … with Compound 14” value was determined as 1 mg/L and the “Potentiation fold with Compound 14” value is given as 4-8 fold. In addition, the MIC in test [1] (setting [5]) fell in the range of 4 to 8 mg/L.
Regarding `C[C@H]1CC[C@]2(NC1)O[C@H]1C[C@H]3[C@@H]4CC[C@H]5CC(NCCCCCCN)CC[C@]5(C)[C@H]4CC[C@]3(C)[C@H]1[C@@H]2C.Cl.Cl.Cl` (stereo partly drawn) [Compound 18, 3-(N-aminohexyl)-aminotomatidine hydrochloride], in test [2], the “Activity of the compounds against the SCV strain (class)” value (from here on “Activity of the compounds”) is listed as “Moderate (MIC = 0.5-4 μg/mL: moderate activity)” and the “MIC vs SCV” value is 1 mg/L. Further, in test [1] (setting [6]), the “potentiaton fold with gentamicin” value was 2-4 x. Moreover, in test [1] (compound used at 8 μg/mL), the “potentiation activity with gentamicin in words” value (“potentiation activity” below) is given as “Moderate” and the “Combination MIC vs ATCC29213 (MIC of gentamicin in combination with the compound)” value (shortened to “Combination MIC vs ATCC29213”) is reported as 0.12-0.25.
Consider `CCCCNC(C)[C@H]1CC[C@H]2[C@@H]3CC[C@H]4C[C@@H](O)CC[C@]4(C)[C@H]3CC[C@]12C.Cl` (mixture of isomers) [Compound 48, 3β-Hydroxy-20-butylamino-5α-pregnane hydrochloride], for which the MIC in test [2] (setting [7]) was in the range of 4 to 8 mg/L. In addition, the “Activity of the compounds” value in test [2] is on record as “Moderate (MIC = 0.5-4 μg/mL: moderate activity)”. In addition, the “potentiaton fold with gentamicin” value in test [1] (setting [6]) is listed as 8 x. Further, in test [1], the “potentiation / synergy with aminoglycoside (gentamicin) in words” value (“potentiation / synergy” below) is “strong or moderate synergy”. The MIC in test [1] (setting [8]) is 64 mg/L. Moreover, in test [1] (compound used at 8 μg/mL), the “potentiation activity” value is reported as “High” and the “Combination MIC vs ATCC29213” value amounted to 0.06.
Turning to `C[C@H]1CC[C@]2(NC1)O[C@H]1C[C@H]3[C@@H]4CC[C@H]5CC(NCCCCN)CC[C@]5(C)[C@H]4CC[C@]3(C)[C@H]1[C@@H]2C.Cl.Cl.Cl` (stereo partly drawn) [Compound 16, 3-(N-aminobutyl)-aminotomatidine hydrochloride], in test [2], the “Activity of the compounds” value is “Moderate (MIC = 0.5-4 μg/mL: moderate activity)” and the “MIC vs SCV” value was 0.5 mg/L. Moreover, in test [1] (MIC gentamicin alone / MIC gentamicin with compound at 4 μg/mL), the “potentiaton fold with gentamicin” value is 4-8 x. Moreover, the “potentiation / synergy” value in test [1] is recorded as “retain the ability to potentiate”. In addition, in test [1] (compound tested alone), the “activity vs ATCC29213 in words” value is “Active” and the “MIC vs ATCC29213” value was 16 mg/L. For the same molecule, in test [1] (compound used at 4 μg/mL), the “potentiation activity” value was “Moderate-high” and the “Combination MIC vs ATCC29213” value was 0.06-0.12.
With `CC(C)CCNC(C)[C@H]1CC[C@H]2[C@@H]3CC[C@H]4C[C@@H](O)CC[C@]4(C)[C@H]3CC[C@]12C.Cl` (mixture of isomers) [Compound 50, 3β-Hydroxy-20-isopentylamino-5α-pregnane hydrochloride], the MIC in test [2] (setting [7]) is more than 8 mg/L. Also, the “Activity of the compounds” value in test [2] is recorded as “Low (MIC = ≥8 μg/mL: low activity)”. Further, the “potentiaton fold with gentamicin” value in test [1] (setting [6]) was determined as 4 x. Besides, in test [1], the “potentiation / synergy” value is given as “strong or moderate synergy”. For the same molecule, the minimum inhibitory concentration (MIC) in test [1] (setting [8]) is more than 64 mg/L. In test [1] (compound used at 8 μg/mL), the “potentiation activity” value is listed as “Moderate” and the “Combination MIC vs ATCC29213” value is listed as 0.12.
Consider “Tomatidine hydrochloride [Compound 3, reference compound]”, for which the minimum inhibitory concentration (MIC) in the test on S. aureus hemB (SaR1) was more than 32 mg/L; in the test on S. aureus hemB (SaR2), more than 32 mg/L; in test [2] (setting [9]), 0.0625 mg/L. Further, the “effect in time-kill in combination with gentamicin” value in test [3] (8 μg/ml with 2 μg/ml gentamicin) is listed as “not seen”. Also, in test [3] (used alone at 8 μg/ml), the “effect on growth in time-kill (CFU)” value is on record as “does not affect the growth”. Moreover, in test [2], the “Activity of the compounds” value was “High (MIC = 0.06-0.25 μg/mL: high activity)”. Also, in test [2], the “MIC vs SCV” value amounted to 0.06 mg/L. Moreover, the “MIC vs ATCC29213” value in test [1] (compound tested alone) is more than 64 mg/L; in test [1] (compound tested alone, listed as tomatidine hydrochloride salt) it was more than 64 mg/L. Also, in test [1] (compound used at 8 μg/mL), the “potentiation activity” value was “High”. Further, the “Combination MIC vs ATCC29213” value in test [1] (compound used at 8 μg/mL) is 0.06.
Consider gentamicin [reference compound], for which the MIC was 4 to 8 mg/L in the test with S. aureus hemB (SaR1); 16 mg/L in the test on S. aureus hemB (SaR2); 0.5 mg/L in the test with MRSA USA100; 0.5 mg/L in the test on MRSA USA300; 4 to 8 mg/L in test [2] (setting [9]); 0.25 mg/L with MRSA COL. Also, the “MIC of aminoglycoside against S. aureus ATCC 29213, aminoglycoside alone” value in test [1] (aminoglycoside alone) is 0.5 mg/L.
As for `NCC[C@H](O)C(=O)N[C@@H]1C[C@H](N)[C@@H](O[C@H]2O[C@H](CN)[C@@H](O)[C@H](O)[C@H]2O)[C@H](O)[C@H]1O[C@H]1O[C@H](CO)[C@@H](O)[C@H](N)[C@H]1O` [Amikacin, reference compound], in test [1], the “MIC of aminoglycoside … with Compound 14” value was determined as 0.25 mg/L and the “Potentiation fold with Compound 14” value was 16 fold. For the same molecule, the MIC in test [1] (setting [5]) was determined as 4 mg/L.
